# Assay results from PMC11148772, “Inhibition of protein translational machinery in triple-negative breast cancer as a promising therapeutic strategy” (Cell Reports Medicine, 2024).
# Assays:
# [1] = system: TNBC cells (MDA-MB-231, MDA-MB-468, SUM159); assay: Immunoblot assay of cell lysates; format: cell-based, human
# Method: MDA-MB-231, MDA-MB-468, and SUM159 cells were grown to 60–70% confluency and treated with DMSO and SU056 (1 μM) for 12 and 24 h. After the specific treatment time was over, total cell lysates were prepared in non-denaturing lysis buffer. For protein lysate from tumors: randomly selected frozen sample; three from vehicle and SU056 treated group were homogenized in non-denaturing lysis buffer at 4°C for 5 min. 10 μg of protein lysate per sample was resolved on 8–16% SDS-PAGE. Membranes were probed with specific primary antibodies followed by detection with HRP-conjugated appropriate secondary antibodies, visualized by enhanced chemiluminescence detection system, and imaged using an iBright imaging system (Thermo Fisher, USA).
# [2] = system: TNBC cells (MDA-MB-231, MDA-MB-468, SUM159, 4T1, EMT6); assay: Clonogenic (colony-formation) assay; format: cell-based
# Method: We performed a clonogenic assay to check the effect of SU056 on clonal expansion potential of MDA-MB-231, MDA-MB-468, SUM159, 4T1, EMT6, and E0771 cells on tissue culture plates. MDA-MB-231 (1000 cells), MDA-MB-468 (1000 cells), SU159 (300 cells), 4T1 (300 cells), and EMT6 (300 cells), were seeded and grown for 24 h in complete media onto 12-well culture plate. Cells were treated with the specific concentrations of SU056 for 7–10 days in complete media. Plates were processed for crystal violet staining, and the number of colonies was counted for each well. Colonies were scanned for confluency area using a Tecan multimode plate reader.
# 4T1 tumor = assay: Syngeneic mouse TNBC model; format: in vivo; details: 50 mg/kg oral gavage, Balb/cJ mice
# Method: (§1) Female NOD-Scid gamma (NSG, Homozygous for Prkdc, Hemizygous for Il2rg<tm1Wjl>) (Strain #005557) and Balb/cJ (Strain#000651) (7–8 weeks old) mice were purchased from the Jackson Laboratory and housed under standard laboratory conditions. The Institutional Animal Care & Use Program of Oregon Health and Science University approved the protocol (#IP00003247). MDA-MB-231 (3 x 10^6), MDA-MB-468 (5 x 10^6), 4T1 (1 x 10^5) and EMT6 (1 x 10^5) cells were suspended in 100 μL of 1x PBS and injected subcutaneously in each mouse. Tumor growth was monitored regularly and once the tumors reached approximately around 50–100 mm^3, treatment with SU056 (50 mg/kg body weight given by oral gavage, 5 days per week) was started. Tumor size and body weight were measured once a week. At the end of treatment, mice were euthanized via deep anesthesia followed by cervical dislocation. Tumors were excised and weighed. Tumor samples were processed for immunoblotting for different markers.
# EMT6 tumor = assay: Syngeneic mouse TNBC model; format: in vivo; details: 50 mg/kg oral gavage, Balb/cJ mice
# Method: as §1
# [3] = system: MDA-MB-231 tumor xenograft; assay: Subcutaneous tumor xenograft; format: in vivo, mouse; details: 50 mg/kg oral gavage, NSG mice
# Method: as §1
# [4] = system: MDA-MB-468 tumor xenograft; assay: Subcutaneous tumor xenograft; format: in vivo, mouse; details: 50 mg/kg oral gavage, NSG mice
# Method: as §1
# CA1616-PDX-TNBC = assay: Patient-derived xenograft; format: in vivo, mouse; details: 50 mg/kg orally, NSG mice
# From the text: (§2) Different patient-derived xenograft (PDX) of TNBC were used in this study. The Institutional Animal Care & Use Program of Oregon Health and Science University approved the protocol (#IP00003247). SUTI151-PDX-TNBC was kindly provided by Stefanie S. Jeffrey, MD, Stanford University, CA, USA.[48] CA1616-PDX-TNBC, CA1262-PDX-TNBC, and MA2821-PDX-TNBC were procured from the NCI Patient-Derived Models Repository (PDMR). Information of the PDX samples from NCI can be accessed at https://pdmr.cancer.gov/models/pdx.htm. 6–8 weeks old NSG (female) mice were anesthetized with isoflurane and tumor cells were xenografted into 5th mammary fat pad. Post-xenograft, once tumors reached a size of 50–100 mm^3, SU056 treatment (50 mg/kg body weight administered by oral gavage, 5 days per week) was started. At the end of treatment, mice were euthanized under deep anesthesia and tumors were surgically removed, measured, and weighed.
# SUTI151-PDX-TNBC = assay: Patient-derived xenograft; format: in vivo, mouse; details: 50 mg/kg orally, NSG mice
# From the text: as §2
# MA2821-PDX-TNBC = assay: Patient-derived xenograft; format: in vivo, mouse; details: 50 mg/kg orally, NSG mice
# From the text: as §2
# CA1262-PDX-TNBC = assay: Patient-derived xenograft; format: in vivo, mouse; details: 50 mg/kg orally, NSG mice
# From the text: as §2
smiles,measurement,setting,value
"O=C1OCC2=C1C(c1cccc(F)c1)c1cc3c(cc1N2CCO)OCO3 (centres unmarked) [SU056, 9-(3-fluorophenyl)-5-(2-hydroxyethyl)-6,9-dihydro-[1,3]dioxolo[4,5-g]furo[3,4-b]quinolin-8(5H)-one]","RPLs (RPL36, RPL35, RPL32, RPL23A, RPL15, RPL11, RPL9)","[1]; 1 μM, 12 and 24 h",decreased
same,YB-1 expression,"[1]; 1 μM, 12 and 24 h",decreased
same,c-Myc expression,"[1]; 1 μM, 12 and 24 h",decreased
same,expression of RPSs,"[1]; 1 μM, 12 and 24 h",lower expression
same,levels of translation initiation factors,"[1]; 1 μM, 12 and 24 h",decreased
same,overall levels of mTOR,"[1]; 1 μM, 12 and 24 h",decreased
same,phosphorylation of mTOR (S2448),"[1]; 1 μM, 12 and 24 h",inhibited
same,phosphorylation of p70S6 kinase (T389 and S371) and S6R (S235/S236),"[1]; 1 μM, 12 and 24 h",decreased
same,"phospho-histone H3 (Ser10), mitotic phase marker",[1]; 12 and 24 h,arrests TNBC cells in the mitotic phase
same,"integrated stress response activation (PERK, eIF2α, ATF4)","[1]; MDA-MB-231 and MDA-MB-468, 1 μM",did not induce
same,cell cycle regulatory proteins (p21 and p27),"[1]; MDA-MB-231 and MDA-MB-468, 1 μM, 12 and 24 h",moderate increase
same,clonogenic potential,"[2]; 0.5 μM, all TNBC cell lines",strong suppression
same,number of colonies formed compared to untreated controls,"[2]; 0.1, 0.25, and 0.5 μM, 7–10 days",significantly decreased
same,primary tumor load reduced compared with vehicle control,4T1 tumor,45.53%
same,tumor weight reduced compared with vehicle control,4T1 tumor,61%
same,reduction in tumor weight,EMT6 tumor,42.53%
same,tumor growth decreased in comparison to control,EMT6 tumor,37.47%
same,tumor growth arrested compared to vehicle control,[3],48%
same,tumor weight reduced compared with vehicle control,[3],44.4%
same,primary tumor growth reduced compared with vehicle control,[4],49.8%
same,tumor weight reduced compared with vehicle control,[4],35.1%
same,tumor volume reduced compared to vehicle control,CA1616-PDX-TNBC,63.1%
same,tumor weight decreased,CA1616-PDX-TNBC,43.6%
same,reduction in tumor weight,SUTI151-PDX-TNBC,29%
same,tumor volume reduced compared to control,SUTI151-PDX-TNBC,37%
same,tumor growth decreased,MA2821-PDX-TNBC,51.35%
same,tumor weight reduced,MA2821-PDX-TNBC,48.89%
same,tumor volume reduced compared to vehicle control,CA1262-PDX-TNBC,49.8%
same,tumor weight decreased,CA1262-PDX-TNBC,34.67%
